Measured values as given in patent US20120264786A1, “USE OF THIAZOLIDINEDIONES FOR THE PARTIAL INHIBITION OF ANDROGEN BINDING TO AROMATASE” (priority 2008, published 2012).

Legend:
Human granulosa cells [1] = experiment: Estradiol production by cultured human granulosa cells with testosterone as substrate (ELISA/RIA); format: cell-based; settings: 3 μM testosterone; for reduction of the inhibitory effect on insulin-induced estradiol production: in the presence of aromatase inhibitor I and insulin, FIG. 2A vs FIG. 2C
Description: (§1) Human granulosa cells were obtained during in vitro fertilization over the course of 18 months and were pooled from several patients at a time to ensure adequate cell number for the experiments. The diagnoses included male factor, tubal factor and uterine factor infertility, endometriosis and anovulation. […] La Jolla, Calif.). Estrone and estradiol concentrations in the tissue culture medium were measured using enzyme-linked immuno-sorbent assay (ELISA) (Alpco Diagnostics, Salem, N.H.) or radioimmunoassay (RIA) (Diagnostic Systems Laboratories, Webster, Tex.). […] The statistical interactions between the sets of data obtained with or without rosiglitazone or pioglitazone and with or without aromatase inhibitor I were examined. Pairwise Bonferroni-adjusted contrasts were used to determine statistical significance. […] Adjustments were made for initial inhibition of estradiol or estrone production induced by rosiglitazone or pioglitazone in the absence of insulin, with or without aromatase inhibitor I.

Human granulosa cells [2] = experiment: Estrone production by cultured human granulosa cells with androstenedione as substrate (ELISA/RIA); format: cell-based; settings: 3 μM androstenedione
Description: as §1

aromatase mRNA = experiment: RT-PCR analysis of aromatase mRNA expression in granulosa cells; format: cell-based, human; settings: androstenedione or testosterone as substrate
aromatase enzyme [3] = biological target: T1, aromatase enzyme (Homo sapiens, UniProt P11511); experiment: 125I-testosterone binding to immunoprecipitated aromatase enzyme; settings: for inhibition at 25 µM: 1 μM testosterone, vs control
T1 construct: The aromatase enzyme was immunoprecipitated as described above; endogenous in cells; host or cells: primary granulosa cells (human), lysate immunoprecipitated with anti-human aromatase antibody and Protein A-agarose
T1 sequence (P11511 1-503): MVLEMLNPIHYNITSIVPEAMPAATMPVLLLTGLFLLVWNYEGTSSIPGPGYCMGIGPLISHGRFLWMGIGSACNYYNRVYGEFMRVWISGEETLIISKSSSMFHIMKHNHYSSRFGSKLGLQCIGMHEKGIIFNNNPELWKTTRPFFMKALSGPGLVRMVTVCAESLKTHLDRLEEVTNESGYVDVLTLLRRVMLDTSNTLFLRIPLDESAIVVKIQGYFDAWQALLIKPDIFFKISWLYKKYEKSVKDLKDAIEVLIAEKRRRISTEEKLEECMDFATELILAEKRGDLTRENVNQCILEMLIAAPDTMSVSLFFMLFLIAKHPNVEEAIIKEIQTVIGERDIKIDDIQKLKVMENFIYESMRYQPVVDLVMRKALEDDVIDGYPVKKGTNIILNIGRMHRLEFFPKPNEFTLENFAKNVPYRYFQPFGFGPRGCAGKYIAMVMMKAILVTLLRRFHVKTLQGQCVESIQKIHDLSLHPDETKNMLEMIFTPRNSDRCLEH
Description: (§2) Rabbit polyclonal anti-human aromatase antibodies (1.4 μg) (Abcam, Inc. Cambridge, Mass.) were added to 1 ml of cell lysate. The lysate buffer contained 20 mM Tris-HCl (pH 7.4), 150 mM NaCl, 1 mM CaCl2, 1 mM MgCl2, 1 mM Na orthovanadate, 1% NP40, 1 mM AEBSF (4-2-aminoethyl-benzenesulfonyfluoride, hydrochloride), 0.8 μM aprotinin, 50 μM bestain, 15 μM E-64, 20 μM leupeptin, 10 μM pepstatin A, 1 mM phenylmethylsulfonyl fluoride and 10 μg/ml trypsin inhibitor. The lysate was centrifuged at 6,000 rpm for 3 min and the supernatant was transferred into another micro-centrifuge tube. […] Metab. 92: 2232-2239, 2007, which is incorporated herein by reference. The mixture was incubated for 3-4 h at 4° C. After Protein A-agarose was added, the mixture was incubated again overnight at 4° C. The immunoprecipitate complexes were collected by centrifugation and washed. The samples were then resuspended in 2× Laemmli buffer (BioRad, Hercules, Calif.) supplemented with 1 mM DTT (Cleland's reagent, 1, 4-dithiothreitol, threo-1, 4-dimercapto-2, 3-butanediol, Roche Inc, Indianapolis, Ind.). […] The bands were detected by chemiluminescence (Pierce, Rockford, Ill.). For the analysis of the expression of aromatase, NIH Scion Imaging program was used to evaluate integrated band intensity.
(§3) The aromatase enzyme was immunoprecipitated as described above. Purified aromatase bound to Protein A-agarose was added to 250 μl of solution containing the final concentration of 1 μM testosterone (2 μCi of [125I]/m1 testosterone with the specific radioactivity of 857 μCi/nmol) or androstenedione (3.5 μCi of [125I]/ml androstenedione with the specific radioactivity of 430 μCi/nmol), with insulin (0, 10, 10^2, 10^3 ng/ml) and with or without 25 μM rosiglitazone or pioglitazone. The mixture was incubated at room temperature for 30 min and then centrifuged at 6000 rpm for 3 min. The pellets were washed two times with 400 μl Dulbecco's phosphate saline. The bound testosterone or androstenedione, expressed as % of total testosterone or androstenedione, was measured in Wizard gamma counter.

aromatase enzyme [4] = biological target: T1, aromatase enzyme; experiment: 125I-androstenedione binding to immunoprecipitated aromatase enzyme; settings: for inhibition at 25 µM: 1 μM androstenedione, vs control
Description: as §2, §3

[5] = tested on: aromatase enzyme (protein) expression; experiment: Aromatase enzyme expression by immunoprecipitation and immunoblotting in granulosa cells; format: cell-based, human; settings: androstenedione or testosterone as substrate; for effect on aromatase enzyme expression: 25 μM, absence or presence of insulin, vs control
Description: as §2, with “La Jolla, Calif.). […]” for “Rabbit polyclonal anti-human aromatase antibodies (1.4 μg) (Abcam, Inc.”, “The lysate buffer contained 20 mM Tris-HCl (pH 7.4), 150 mM NaCl, 1 mM CaCl2, 1 mM MgCl2, 1 mM Na orthovanadate, 1% NP40, 1 mM AEBSF (4-2-aminoethyl-benzenesulfonyfluoride, hydrochloride), 0.8 μM aprotinin, 50 μM bestain, 15 μM E-64, 20 μM leupeptin, 10 μM pepstatin A, 1 mM phenylmethylsulfonyl fluoride and 10 μg/ml trypsin inhibitor.” left out

[6] = in the presence of aromatase inhibitor I
[7] = 25 μM, absence or presence of insulin, vs control
[8] = 25 μM TZD, presence of insulin, absence of aromatase inhibitor I, vs control without TZD
[9] = insulin, absence of aromatase inhibitor I, vs baseline

inhibition at 25 µM (aromatase enzyme [3]) [%] | inhibition at 25 µM (aromatase enzyme [4]) [%] | effect on the binding of testosterone to aromatase (aromatase enzyme [3]; insulin alone) | effect on the binding of androstenedione to aromatase (aromatase enzyme [4]; insulin alone) | Molecule | inhibition of estradiol production (Human granulosa cells [1]; [6]) [%] | insulin-induced stimulation of estradiol production (Human granulosa cells [1]; [6]) | inhibition of estrone production (Human granulosa cells [2]; aromatase inhibitor 100 to 200 nM) [%] | effect on aromatase mRNA (aromatase mRNA; [7]) | effect on aromatase enzyme expression [5] | inhibition of estradiol production (Human granulosa cells [1]; [8]) [%] | reduction of the inhibitory effect on insulin-induced estradiol production (Human granulosa cells [1]) [%] | inhibition of estrone production (Human granulosa cells [2]; [8]) [%] | effect on aromatase mRNA (aromatase mRNA; insulin alone) | effect on aromatase enzyme (protein) expression ([5]; insulin alone) | stimulation of estradiol production (Human granulosa cells [1]; [9]) [%] | stimulation of estrone production (Human granulosa cells [2]; [9]) [%]
– | – | – | – | 4-(imidazolylmethyl)-1-nitro-9H-9-xanthenone [aromatase inhibitor I] | 72 | completely abolished | 55 | – | – | – | – | – | – | – | – | –
32 | 20 | – | – | CCc1ccc(CCOc2ccc(CC3SC(=O)NC3=O)cc2)nc1 (centres unmarked) [pioglitazone] | – | – | – | no significant effect | no significant effect | 34 | 62 | 22 | – | – | – | –
38 | 20 | – | – | CN(CCOc1ccc(CC2SC(=O)NC2=O)cc1)c1ccccn1 (centres unmarked) [rosiglitazone] | – | – | – | no significant effect | no significant effect | 34 | 62 | 22 | – | – | – | –
– | – | no effect | no effect | insulin: insulin added to granulosa cell culture (0-10^4 ng/ml) | – | – | – | – | – | – | – | – | no effect | did not affect | 124 | 114
